Measured values as given in patent publication US7538252B2, “Drug design for tubulin inhibitors, compositions, and methods of treatment thereof” (BiPar Sciences, Inc., priority 2006, dated 2009).

Tests used:
[1] = system: HCT116 and Hela cells; test: Cell cycle analysis by flow cytometry; type: cell-based; details: FIG. 6, compared to control DIPE
Experimental: (§1) HCT116 and Hela cells were obtained from ATCC. For DNA content analysis, 2×10^5 cells were washed twice with PBS and fixed in 70% ethanol. Cells were treated with 100 units/mL RNase A for 20 minutes at 37° C., resuspended in cold PBS containing Alexa Fluor® 405 fluorescent stain (Invitrogen) according to the manufacturer's protocol. Cells were analyzed by flow cytometry.
For DNA replication analysis, 2×10^5 cells were incubated with 50 μmol/L bromodeoxyuridine (BrdUrd) for 30 minutes. Cells were fixed in 70% ethanol and BrdUrd incorporation was determined by flow cytometric analysis using an anti-BrdUrd-FITC antibody (Becton Dickinson, Franklin Lakes, N.J.) according to the manufacturer's protocol. To assess the degree of G2/M checkpoint, mitotic cells were detected by flow cytometry using the mitosis-specific antibody GF-7. Fixed cells were incubated for 30 minutes with GF7-phycoerythrin (PE) antibody (BD Biosciences Pharmingen), washed with PBS and analyzed by flow cytometry. FIG. 6 compares the results obtained with DIPE and formula IIIB.

[2] = system: HeLa cells; test: TUNEL apoptosis assay with flow cytometry; type: cell-based; details: FIG. 7, compared to control DIPE
Source text: Programmed cell death (apoptosis) is an important homeostatic mechanism in the immune and other systems. The phenomenon of nuclear disintegration during apoptosis can be used as a marker to detect cells undergoing this process. While a variety of methods are available to detect apoptotic cells the TUNEL assay allows the rapid phenotypic identification of individual apoptotic cells using flow cytometry (FACS). Terminal transferase dUTP nick end labeling (TUNEL) is a common method for detecting DNA fragmentation that results from apoptosis. The assay based on the presence of nicks in the DNA that can be identified by terminal transferase, an enzyme that will catalyze the addition of dUTPs that are secondarily labeled with a marker. It may also label cells undergoing necrosis or cells that have suffered severe DNA damage.
as §1, with “Hela” for “HCT116 and Hela”, “cytometry to characterize the cell cycle. […]” for “cytometry.”

[3] = system: TNF-alpha mRNA; test: TNF-alpha mRNA level in LPS-stimulated PU5-1.8 macrophages (Northern blot); type: cell-based, murine
Experimental: This example provides an assay that can be used to screen compounds of Formula I for their ability to reduce the expression of cytokines (e.g., TNF-alpha) in a mammal.
The murine macrophage PU5-1.8 cell line is purchased from the American Type Culture Collection (ATCC, Rockville, Md.). Cells are grown in DMEM medium supplemented with […] sodium pyruvate, 0.1 mM nonessential amino acids, 2 mM glutamine and 5% fetal bovine serum (Life Technologies, Staten Island, N.Y.). Cells are maintained in a humidified atmosphere of 5% CO2-95% air at 37° C. Cells are passaged twice weekly by firmly tapping the side of the flask to dislodge the adherent cells. Both non-adherent and adherent cells are passaged. Exponentially growing cells are seeded at 5×10^5/mL, 4 mL per 60-mm dish 24 h prior to the experiment. Test compounds are delivered in 1 mL volumes of the medium added to each dish at the start of the experiment. All dishes are incubated at 37° C. in 5% CO2-95% air for 3 h.
The Tumor Necrosis Factor (TNF-alpha) cDNA is obtained from the ATCC (Rockville, Md.). […]
Hybridized bands are quantified by analyzing the images obtained by using a video densitometer (Applied Imaging Corporation, Santa Clara, Calif.). […]
Treatment of PU5-1.8 murine macrophages with LPS (100 ng/mL) for 3 h results in a significant increase (>7 fold) in the level of TNF-alpha mRNA as determined by Northern blot analysis. […]

For `COc1ccc(Oc2c(I)cc(C(C)=O)cc2I)cc1N` [Formula IIIB, 1-(4-(3-amino-4-methoxyphenoxy)-3,5-diiodophenyl)ethanone], the cell-cycle arrest [1] was “cell-cycle arrest” and the induction of apoptosis [2] was “induction of apoptosis”.
In the case of `COc1cc2c(c(OC)c1OC)-c1ccc(OC)c(=O)cc1[C@@H](NC(C)=O)CC2` [colchicine], the “inhibition of TNF-alpha mRNA accumulation” value ([3]; 10 μM added to LPS (100 ng/mL) treated cultures, 3 h) is reported as 68% and the “effect on TNF-alpha mRNA expression” value ([3]; 10 μM, cells without LPS) is reported as “no effect”.
